System: MCF7 cells
Experiment: Anti-proliferation (viability) of MCF7 cells (Table 7, FIG. 2B)
Format: cell-based
Details: Homo sapiens, MCF7, MCF7 cells, 3-6 days, 10-point serial dilution; read-out: GI IC50 in MCF-7

SMILES	IC50 [nM]
CNc1ccc(C(=O)Nc2cn(C)c(C(C)O)n2)c(NC2CC3(CC(NC(=O)CN4CCN(c5ccc(Nc6ncc7c(C)c(C(C)=O)c(=O)n(C8CCCC8)c7n6)nc5)CC4)C3)C2)n1 (centres unmarked) [CPD-330, 2-((6-(2-(4-(6-((6-acetyl-8-cyclopentyl-5-methyl-7-oxo-7,8-dihydropyrido[2,3-d]pyrimidin-2-yl)amino)pyridin-3-yl)piperazin-1-yl)acetamido)spiro[3.3]heptan-2-yl)amino)-N-(2-(1-hydroxyethyl)-1-methyl-1H-imidazol-4-yl)-6-(methylamino)nicotinamide]	> 100
CC(=O)c1c(C)c2cnc(Nc3ccc(N4CCC(NCC(=O)N5CC(Nc6nc(NC(C)C)ccc6C(=O)Nc6ccc(N(C)C)nn6)C5)CC4)cn3)nc2n(C2CCCC2)c1=O [CPD-356, 2-((1-((1-(6-((6-acetyl-8-cyclopentyl-5-methyl-7-oxo-7,8-dihydropyrido[2,3-d]pyrimidin-2-yl)amino)pyridin-3-yl)piperidin-4-yl)glycyl)azetidin-3-yl)amino)-N-(6-(dimethylamino)pyridazin-3-yl)-6-(isopropylamino)nicotinamide]	50 to 100
[2H]C([2H])([2H])Nc1ccc(C(=O)Nc2ccc(N(C)C)nn2)c(NC2CC3(CC(NC(=O)C4CC45CCN(c4ccc(Nc6ncc7c(C)c(C(C)=O)c(=O)n(C8CCCC8)c7n6)nc4)CC5)C3)C2)n1 (centres unmarked) [CPD-439, 6-(6-((6-acetyl-8-cyclopentyl-5-methyl-7-oxo-7,8-dihydropyrido[2,3-d]pyrimidin-2-yl)amino)pyridin-3-yl)-N-(6-((3-((6-(dimethylamino)pyridazin-3-yl)carbamoyl)-6-((methyl-d3)amino)pyridin-2-yl)amino)spiro[3.3]heptan-2-yl)-6-azaspiro[2.5]octane-1-carboxamide]	< 50
[2H]C([2H])([2H])Nc1ccc(C(=O)Nc2cc(C)on2)c(NC2CCC(NC(=O)CN3CCN(c4ccc(Nc5ncc6c(C)c(C(C)=O)c(=O)n(C7CCCC7)c6n5)nc4)CC3)C2)n1 (centres unmarked) [CPD-294, 2-((3-(2-(4-(6-((6-acetyl-8-cyclopentyl-5-methyl-7-oxo-7,8-dihydropyrido[2,3-d]pyrimidin-2-yl)amino)pyridin-3-yl)piperazin-1-yl)acetamido)cyclopentyl)amino)-6-((methyl-d3)amino)-N-(5-methylisoxazol-3-yl)nicotinamide]	> 100
CC(=O)c1c(C)c2cnc(Nc3ccc(CN4CCN(CC(=O)N5CCC(Nc6nc(NC(C)C)ccc6C(=O)Nc6cc(C)n(C)n6)CC5)CC4)cn3)nc2n(C2CCCC2)c1=O [CPD-421, 2-((1-(2-(4-((6-((6-acetyl-8-cyclopentyl-5-methyl-7-oxo-7,8-dihydropyrido[2,3-d]pyrimidin-2-yl)amino)pyridin-3-yl)methyl)piperazin-1-yl)acetyl)piperidin-4-yl)amino)-N-(1,5-dimethyl-1H-pyrazol-3-yl)-6-(isopropylamino)nicotinamide]	> 100
CNc1ccc(C(=O)Nc2ccc(N(C)C)nn2)c(NC2CC3(C2)CC(C(=O)NC2CC4(CCN(c5ccc(Nc6ncc7c(C)c(C(C)=O)c(=O)n(C8CCCC8)c7n6)nc5)CC4)C2)C3)n1 (centres unmarked) [CPD-374, 2-((6-((7-(6-((6-acetyl-8-cyclopentyl-5-methyl-7-oxo-7,8-dihydropyrido[2,3-d]pyrimidin-2-yl)amino)pyridin-3-yl)-7-azaspiro[3.5]nonan-2-yl)carbamoyl)spiro[3.3]heptan-2-yl)amino)-N-(6-(dimethylamino)pyridazin-3-yl)-6-(methylamino)nicotinamide]	> 100
CNc1ccc(C(=O)Nc2ccc(N(C)C)nn2)c(NC2CC(C(=O)N3CC4(CCN(c5ccc(Nc6ncc7c(C)c(C(C)=O)c(=O)n(C8CCCC8)c7n6)nc5)CC4)C3)C2)n1 (centres unmarked) [CPD-331, 2-((3-(7-(6-((6-acetyl-8-cyclopentyl-5-methyl-7-oxo-7,8-dihydropyrido[2,3-d]pyrimidin-2-yl)amino)pyridin-3-yl)-2,7-diazaspiro[3.5]nonane-2-carbonyl)cyclobutyl)amino)-N-(6-(dimethylamino)pyridazin-3-yl)-6-(methylamino)nicotinamide]	> 100
CC(=O)c1c(C)c2cnc(Nc3ccc(N4CCN(CC(=O)NC5CCC(Nc6nc(NC(C)C)ccc6C(=O)Nc6cc(C)on6)C5)CC4)cn3)nc2n(C2CCCC2)c1=O (centres unmarked) [CPD-295, 2-((3-(2-(4-(6-((6-acetyl-8-cyclopentyl-5-methyl-7-oxo-7,8-dihydropyrido[2,3-d]pyrimidin-2-yl)amino)pyridin-3-yl)piperazin-1-yl)acetamido)cyclopentyl)amino)-6-(isopropylamino)-N-(5-methylisoxazol-3-yl)nicotinamide]	> 100
CNc1ccc(C(=O)Nc2ccc(N(C)C)nn2)c(NC2CC(OC(=O)N3CCN(c4ccc(Nc5ncc6c(C)c(C(C)=O)c(=O)n(C7CCCC7)c6n5)nc4)CC3)C2)n1 (centres unmarked) [CPD-311, 3-((3-((6-(dimethylamino)pyridazin-3-yl)carbamoyl)-6-(methylamino)pyridin-2-yl)amino)cyclobutyl 4-(6-((6-acetyl-8-cyclopentyl-5-methyl-7-oxo-7,8-dihydropyrido[2,3-d]pyrimidin-2-yl)amino)pyridin-3-yl)piperazine-1-carboxylate]	> 100

Now from value to molecule:

IC50 [nM]	SMILES
> 100	CC(=O)c1c(C)c2cnc(Nc3ccc(N4CCC(N5CC(C(=O)N6CC7(CC(Nc8nc(NC(C)C)ccc8C(=O)Nc8ccc(N(C)C)nn8)C7)C6)C5)CC4)cn3)nc2n(C2CCCC2)c1=O [CPD-391, 2-((2-(1-(1-(6-((6-acetyl-8-cyclopentyl-5-methyl-7-oxo-7,8-dihydropyrido[2,3-d]pyrimidin-2-yl)amino)pyridin-3-yl)piperidin-4-yl)azetidine-3-carbonyl)-2-azaspiro[3.3]heptan-6-yl)amino)-N-(6-(dimethylamino)pyridazin-3-yl)-6-(isopropylamino)nicotinamide]
> 100	[2H]C([2H])([2H])Nc1ccc(C(=O)Nc2cn(C)c(C3CC3)n2)c(NC2CC3(CC(NC(=O)C(C)N4CCN(c5ccc(Nc6ncc7c(C)c(C(C)=O)c(=O)n(C8CCCC8)c7n6)nc5)CC4)C3)C2)n1 (centres unmarked) [CPD-405, 2-((6-(2-(4-(6-((6-acetyl-8-cyclopentyl-5-methyl-7-oxo-7,8-dihydropyrido[2,3-d]pyrimidin-2-yl)amino)pyridin-3-yl)piperazin-1-yl)propanamido)spiro[3.3]heptan-2-yl)amino)-N-(2-cyclopropyl-1-methyl-1H-imidazol-4-yl)-6-((methyl-d3)amino)nicotinamide]
> 100	CNc1ccc(C(=O)Nc2ccc(N(C)C)nn2)c(NC2CCC(N(C)C(=O)CN3CCN(c4ccc(Nc5ncc6c(C)c(C(C)=O)c(=O)n(C7CCCC7)c6n5)nc4)CC3)C2)n1 (centres unmarked) [CPD-430, 2-((3-(2-(4-(6-((6-acetyl-8-cyclopentyl-5-methyl-7-oxo-7,8-dihydropyrido[2,3-d]pyrimidin-2-yl)amino)pyridin-3-yl)piperazin-1-yl)-N-methylacetamido)cyclopentyl)amino)-N-(6-(dimethylamino)pyridazin-3-yl)-6-(methylamino)nicotinamide]
> 100	CNc1ccc(C(=O)Nc2ccc(N(C)C)nn2)c(NCC2COC3(C2)CN(C(=O)CN2CCN(c4ccc(Nc5ncc6c(C)c(C(C)=O)c(=O)n(C7CCCC7)c6n5)nc4)CC2)C3)n1 (centres unmarked) [CPD-354, 2-(((2-(2-(4-(6-((6-acetyl-8-cyclopentyl-5-methyl-7-oxo-7,8-dihydropyrido[2,3-d]pyrimidin-2-yl)amino)pyridin-3-yl)piperazin-1-yl)acetyl)-5-oxa-2-azaspiro[3.4]octan-7-yl)methyl)amino)-N-(6-(dimethylamino)pyridazin-3-yl)-6-(methylamino)nicotinamide]
< 50	CC(=O)c1c(C)c2cnc(Nc3ccc(N4CCC5(CC4)CC5C(=O)N4CC5(CC(Nc6nc(NC(C)C)ccc6C(=O)Nc6cc(C)n(C)n6)C5)C4)cn3)nc2n(C2CCCC2)c1=O (centres unmarked) [CPD-415, 2-((2-(6-(6-((6-acetyl-8-cyclopentyl-5-methyl-7-oxo-7,8-dihydropyrido[2,3-d]pyrimidin-2-yl)amino)pyridin-3-yl)-6-azaspiro[2.5]octane-1-carbonyl)-2-azaspiro[3.3]heptan-6-yl)amino)-N-(1,5-dimethyl-1H-pyrazol-3-yl)-6-(isopropylamino)nicotinamide]
50 to 100	CC(=O)c1c(C)c2cnc(Nc3ccc(N4CCN(CC(=O)NC(C)C5CC(Nc6nc(NC(C)C)ccc6C(=O)Nc6cc(C)on6)C5)CC4)cn3)nc2n(C2CCCC2)c1=O (centres unmarked) [CPD-377, 2-((3-(1-(2-(4-(6-((6-acetyl-8-cyclopentyl-5-methyl-7-oxo-7,8-dihydropyrido[2,3-d]pyrimidin-2-yl)amino)pyridin-3-yl)piperazin-1-yl)acetamido)ethyl)cyclobutyl)amino)-6-(isopropylamino)-N-(5-methylisoxazol-3-yl)nicotinamide]
> 100	CC(=O)c1c(C)c2cnc(Nc3ccc(N4CCN(CC(=O)NCCCCCNc5nc6[nH]ccc6cc5C(=O)Nc5ccc(N(C)C)nn5)CC4)cn3)nc2n(C2CCCC2)c1=O [CPD-251, 6-((5-(2-(4-(6-((6-acetyl-8-cyclopentyl-5-methyl-7-oxo-7,8-dihydropyrido[2,3-d]pyrimidin-2-yl)amino)pyridin-3-yl)piperazin-1-yl)acetamido)pentyl)amino)-N-(6-(dimethylamino)pyridazin-3-yl)-1H-pyrrolo[2,3-b]pyridine-5-carboxamide]
> 100	[2H]C([2H])([2H])Nc1ccc(C(=O)Nc2ccc(N(C)C)nn2)c(NC2CC23CCN(C(=O)CC(C)N2CCN(c4ccc(Nc5ncc6c(C)c(C(C)=O)c(=O)n(C7CCCC7)c6n5)nc4)CC2)CC3)n1 (centres unmarked) [CPD-383, 2-((6-(3-(4-(6-((6-acetyl-8-cyclopentyl-5-methyl-7-oxo-7,8-dihydropyrido[2,3-d]pyrimidin-2-yl)amino)pyridin-3-yl)piperazin-1-yl)butanoyl)-6-azaspiro[2.5]octan-1-yl)amino)-N-(6-(dimethylamino)pyridazin-3-yl)-6-((methyl-d3)amino)nicotinamide]

— patent US20260297081A1, “COMPOUNDS AND METHODS OF TREATING CANCERS” (Cullgen Inc., priority 2023, published 2026)
